# Values joined by “and” are separate entries in the source; they are usually repeats but may differ in a detail not shown here. Equal values may be shown once. Inconclusive results and toxic doses are left out.
# Tested on: L1210 leukemia ip in BDF1 mice, survival T/C
# Assay: NCI In Vivo Anticancer Drug Screen. Data for tumor model L1210 Leukemia (intraperitoneal) in B6D2F1 (BDF1) mice
# Conditions: endpoint: mean survival time, higher = longer survival
# How it was run: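 Mice bearing the transplanted tumor received compound or vehicle. Survival of the treated group was divided by that of the vehicle-treated control group to give the ratio.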
# [1] = dose: 100.0 mg/kg/injection, schedule: Q01DX001 (ip), vehicle: Klucel (hydroxypropylcellulose) (HPC)
# [2] = dose: 100.0 mg/kg/injection, schedule: Q01DX009 (ip), vehicle: Klucel (hydroxypropylcellulose) (HPC)
# [3] = dose: 100.0 mg/kg/injection, schedule: Q04DX003 (ip), vehicle: Klucel (hydroxypropylcellulose) (HPC)
# [4] = dose: 200.0 mg/kg/injection, schedule: Q01DX001 (ip), vehicle: Klucel (hydroxypropylcellulose) (HPC)
# [5] = dose: 200.0 mg/kg/injection, schedule: Q01DX009 (ip), vehicle: Klucel (hydroxypropylcellulose) (HPC)
# [6] = dose: 200.0 mg/kg/injection, schedule: Q04DX003 (ip), vehicle: Klucel (hydroxypropylcellulose) (HPC)
# [7] = dose: 400.0 mg/kg/injection, schedule: Q01DX001 (ip), vehicle: Klucel (hydroxypropylcellulose) (HPC)
# [8] = dose: 400.0 mg/kg/injection, schedule: Q04DX003 (ip), vehicle: Klucel (hydroxypropylcellulose) (HPC)
# [9] = dose: 100.0 mg/kg/injection, schedule: Q04DX003 (ip), vehicle: saline
# [10] = dose: 200.0 mg/kg/injection, schedule: Q04DX003 (ip), vehicle: saline
# [11] = dose: 400.0 mg/kg/injection, schedule: Q04DX003 (ip), vehicle: saline
# [12] = dose: 50.0 mg/kg/injection, schedule: Q01DX001 (ip), vehicle: saline
# [13] = dose: 100.0 mg/kg/injection, schedule: Q01DX001 (ip), vehicle: saline
# [14] = dose: 200.0 mg/kg/injection, schedule: Q01DX001 (ip), vehicle: saline
# [15] = dose: 100.0 mg/kg/injection, schedule: Q01DX009 (ip), vehicle: saline with Tween-80
# [16] = dose: 200.0 mg/kg/injection, schedule: Q01DX009 (ip), vehicle: saline with Tween-80
# [17] = dose: 400.0 mg/kg/injection, schedule: Q01DX001 (ip), vehicle: saline
# [18] = dose: 400.0 mg/kg/injection, schedule: Q01DX009 (ip), vehicle: saline with Tween-80
# [19] = dose: 400.0 mg/kg/injection, schedule: Q01DX009 (ip), vehicle: Klucel (hydroxypropylcellulose) (HPC)
# [20] = dose: 50.0 mg/kg/injection, schedule: Q01DX009 (ip), vehicle: saline with Tween-80
smiles,measurement,setting,value
O=C(Nc1ccc([N+](=O)[O-])cc1Cl)SCc1ccccc1,T/C,[1],96 % of control
same,T/C,[2],94 % of control and 101 % of control
same,T/C,"dose: 100.0 mg/kg/injection, schedule: Q04DX002 (ip), vehicle: Klucel (hydroxypropylcellulose) (HPC)",95 % of control and 105 % of control
same,T/C,[3],92 % of control
same,T/C,[4],96 % of control
same,T/C,[5],97 % of control and 106 % of control
same,T/C,"dose: 200.0 mg/kg/injection, schedule: Q04DX002 (ip), vehicle: Klucel (hydroxypropylcellulose) (HPC)",103 % of control and 105 % of control
same,T/C,[6],95 % of control
same,T/C,[7],96 % of control
same,T/C,"dose: 400.0 mg/kg/injection, schedule: Q04DX002 (ip), vehicle: Klucel (hydroxypropylcellulose) (HPC)",94 % of control and 95 % of control
same,T/C,[8],92 % of control
S=C1NC(c2cccc(Cl)c2)N2C(=S)NC(c3cccc(Cl)c3)N12 (stereo unspecified),T/C,"dose: 25.0 mg/kg/injection, schedule: Q01DX009 (ip), vehicle: gum acacia",95 % of control
same,T/C,"dose: 50.0 mg/kg/injection, schedule: Q01DX009 (ip), vehicle: gum acacia",95 % of control
same,T/C,"dose: 100.0 mg/kg/injection, schedule: Q01DX009 (ip), vehicle: gum acacia",101 % of control
same,T/C,"dose: 100.0 mg/kg/injection, schedule: Q04DX003 (ip), vehicle: gum acacia",101 % of control
same,T/C,"dose: 200.0 mg/kg/injection, schedule: Q01DX009 (ip), vehicle: gum acacia",88 % of control
same,T/C,"dose: 200.0 mg/kg/injection, schedule: Q04DX003 (ip), vehicle: gum acacia",93 % of control
same,T/C,"dose: 400.0 mg/kg/injection, schedule: Q01DX009 (ip), vehicle: gum acacia",87 % of control
same,T/C,"dose: 400.0 mg/kg/injection, schedule: Q04DX003 (ip), vehicle: gum acacia",97 % of control
O=c1c2cc([N+](=O)[O-])ccc2[nH]c2c1ccc1ccccc12,T/C,[9],92 % of control
same,T/C,[10],92 % of control
same,T/C,[11],90 % of control
C[N+](C)(C)CCC[N+]1(C)CCC2(CCCC(C(F)(F)F)C2)CC1 (stereo unspecified),T/C,[12],98 % of control
same,T/C,[13],104 % of control
same,T/C,[14],96 % of control
CSc1ccc(NC(=O)Nc2c(C)n(C)n(-c3ccccc3)c2=O)cc1,T/C,[13],89 % of control
same,T/C,[15],89 % of control
same,T/C,[9],94 % of control
same,T/C,[14],89 % of control
same,T/C,[16],89 % of control
same,T/C,[10],94 % of control
same,T/C,[17],94 % of control
same,T/C,[18],86 % of control
same,T/C,[11],87 % of control
COc1c(NC(=O)c2ccccc2Cl)cccc1[N+](=O)[O-],T/C,"dose: 25.0 mg/kg/injection, schedule: Q01DX009 (ip), vehicle: Klucel (hydroxypropylcellulose) (HPC)",100 % of control
same,T/C,"dose: 50.0 mg/kg/injection, schedule: Q01DX009 (ip), vehicle: Klucel (hydroxypropylcellulose) (HPC)",88 % of control
same,T/C,[2],91 % of control and 92 % of control
Cc1cc(=O)cc(C)o1,T/C,[15],108 % of control
same,T/C,[16],100 % of control
same,T/C,[18],102 % of control
NC(=O)Nc1cccc2c1-c1ccccc1C2=O,T/C,"dose: 100.0 mg/kg/injection, schedule: Q04DX003 (ip), vehicle: acetone",88 % of control
same,T/C,"dose: 400.0 mg/kg/injection, schedule: Q04DX003 (ip), vehicle: acetone",100 % of control
CCOC(=O)COc1ccccc1Cl,T/C,"dose: 1.56 mg/kg/injection, schedule: Q04DX002 (ip), vehicle: Klucel (hydroxypropylcellulose) (HPC)",115 % of control
same,T/C,"dose: 3.13 mg/kg/injection, schedule: Q04DX002 (ip), vehicle: Klucel (hydroxypropylcellulose) (HPC)",105 % of control
same,T/C,"dose: 6.25 mg/kg/injection, schedule: Q04DX002 (ip), vehicle: Klucel (hydroxypropylcellulose) (HPC)",108 % of control
same,T/C,"dose: 12.5 mg/kg/injection, schedule: Q04DX002 (ip), vehicle: Klucel (hydroxypropylcellulose) (HPC)",106 % of control
same,T/C,"dose: 25.0 mg/kg/injection, schedule: Q04DX002 (ip), vehicle: Klucel (hydroxypropylcellulose) (HPC)",95 % of control
same,T/C,"dose: 50.0 mg/kg/injection, schedule: Q04DX002 (ip), vehicle: Klucel (hydroxypropylcellulose) (HPC)",97 % of control
O=C(COc1ccc([N+](=O)[O-])cc1Cl)N1CCOCC1,T/C,[2],103 % of control
same,T/C,[3],98 % of control
same,T/C,[5],97 % of control
same,T/C,[6],103 % of control
same,T/C,[19],101 % of control
same,T/C,[8],95 % of control
O=C(O)CCOc1ccc(Cl)cc1,T/C,"dose: 100.0 mg/kg/injection, schedule: Q04DX003 (ip), vehicle: saline with Tween-80",106 % of control
same,T/C,"dose: 200.0 mg/kg/injection, schedule: Q04DX003 (ip), vehicle: saline with Tween-80",103 % of control
same,T/C,"dose: 400.0 mg/kg/injection, schedule: Q04DX003 (ip), vehicle: saline with Tween-80",95 % of control
CS(=O)(=O)Oc1cccc(C2CS(=O)(=O)c3ccccc3N2)c1 (stereo unspecified),T/C,[1],101 % of control
same,T/C,[2],104 % of control
same,T/C,[3],97 % of control
same,T/C,[4],106 % of control
same,T/C,[5],101 % of control
same,T/C,[6],97 % of control
same,T/C,[7],103 % of control
same,T/C,[19],101 % of control
same,T/C,[8],94 % of control
O=S(=O)(c1ccc(N=Nc2ncc[nH]2)cc1)N(CCCl)CCCl,T/C,[20],90 % of control
same,T/C,[15],94 % of control
same,T/C,[16],90 % of control
C[C@]12CC[C@@H]3c4ccc(Oc5nc(N6CC6)nc(N6CC6)n5)cc4CC[C@H]3[C@@H]1CCC2=O,T/C,"dose: 25.0 mg/kg/injection, schedule: Q01DX009 (ip), vehicle: steriod suspending solution",101 % of control
same,T/C,"dose: 25.0 mg/kg/injection, schedule: Q01DX009 (oral), vehicle: carboxymethylcellulose (CMC)",106 % of control
same,T/C,"dose: 25.0 mg/kg/injection, schedule: Q04DX003 (sc), vehicle: steriod suspending solution",106 % of control
same,T/C,"dose: 50.0 mg/kg/injection, schedule: Q01DX009 (oral), vehicle: carboxymethylcellulose (CMC)",101 % of control
same,T/C,"dose: 50.0 mg/kg/injection, schedule: Q04DX003 (sc), vehicle: steriod suspending solution",98 % of control
same,T/C,"dose: 100.0 mg/kg/injection, schedule: Q01DX001 (sc), vehicle: steriod suspending solution",105 % of control
same,T/C,"dose: 100.0 mg/kg/injection, schedule: Q01DX009 (oral), vehicle: carboxymethylcellulose (CMC)",104 % of control
same,T/C,"dose: 100.0 mg/kg/injection, schedule: Q04DX003 (sc), vehicle: steriod suspending solution",101 % of control
same,T/C,"dose: 200.0 mg/kg/injection, schedule: Q01DX001 (sc), vehicle: steriod suspending solution",118 % of control
same,T/C,"dose: 400.0 mg/kg/injection, schedule: Q01DX001 (sc), vehicle: steriod suspending solution",107 % of control
O=c1[nH][nH]c(=O)n1-c1ccccc1,T/C,"dose: 25.0 mg/kg/injection, schedule: Q01DX009 (ip), vehicle: saline with Tween-80",96 % of control
same,T/C,[20],94 % of control
same,T/C,[15],100 % of control
same,T/C,"dose: 100.0 mg/kg/injection, schedule: Q04DX002 (ip), vehicle: saline with Tween-80",100 % of control
same,T/C,"dose: 177.0 mg/kg/injection, schedule: Q04DX002 (ip), vehicle: saline with Tween-80",95 % of control
same,T/C,[16],93 % of control
same,T/C,"dose: 200.0 mg/kg/injection, schedule: Q04DX002 (ip), vehicle: saline with Tween-80",103 % of control
same,T/C,"dose: 266.0 mg/kg/injection, schedule: Q04DX002 (ip), vehicle: saline with Tween-80",98 % of control
same,T/C,[18],93 % of control
same,T/C,"dose: 600.0 mg/kg/injection, schedule: Q04DX002 (ip), vehicle: saline with Tween-80",95 % of control
O=C(CCCC(=O)NNC(=S)Nc1ccccc1)NNC(=S)Nc1ccccc1,T/C,[12],100 % of control
same,T/C,[13],100 % of control
same,T/C,[14],97 % of control
same,T/C,[17],100 % of control
CN(Cc1cnc2nc(N)nc(N)c2n1)c1ccc(C(=O)NC(CCC(=O)O)C(=O)O)c(Cl)c1Cl (stereo unspecified),T/C,"dose: 12.5 mg/kg/injection, schedule: Q01DX009 (ip), vehicle: sodium bicarbonate",157 % of control
same,T/C,"dose: 25.0 mg/kg/injection, schedule: Q01DX009 (ip), vehicle: sodium bicarbonate",157 % of control
same,T/C,"dose: 50.0 mg/kg/injection, schedule: Q01DX009 (ip), vehicle: sodium bicarbonate",155 % of control

# From PubChem BioAssay AID248 (DTP/NCI, 2004)
